One block for each compound: values may come before it.
Target: T1, NR2F6 (Homo sapiens, UniProt P10588)
T1 construct: expressed in transfected cells; also transient transfection
T1 sequence (P10588 1-404): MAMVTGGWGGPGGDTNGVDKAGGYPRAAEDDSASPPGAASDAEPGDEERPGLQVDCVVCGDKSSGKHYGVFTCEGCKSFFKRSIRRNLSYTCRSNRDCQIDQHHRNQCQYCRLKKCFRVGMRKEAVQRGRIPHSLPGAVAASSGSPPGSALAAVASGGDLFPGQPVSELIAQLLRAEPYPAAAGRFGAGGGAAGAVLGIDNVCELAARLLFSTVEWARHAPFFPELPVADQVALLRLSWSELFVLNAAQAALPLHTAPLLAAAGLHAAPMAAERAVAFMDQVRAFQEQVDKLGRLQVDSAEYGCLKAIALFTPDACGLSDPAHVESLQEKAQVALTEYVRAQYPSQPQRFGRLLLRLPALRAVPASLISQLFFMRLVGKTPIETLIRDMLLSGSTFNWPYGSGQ
Experiment: NR2F6 agonist screening, Firefly signal cmpd/DMSO
Format: cell-based
Conditions: for Firefly/Renilla (NR2F6 stable, clone F4): ratio Firefly/Renilla; for Firefly, NR2F6 stable (clone F4)/pGL4: ratio of Firefly in NR2F6 stable clone F4 to pGL4

[1] = C11 analogs follow set (Tables 2-10)

Structure (SMILES): Cc1ccc(S(=O)(=O)c2cc3ccccc3oc2=O)cc1 [Compound C100]
- Firefly, cmpd/DMSO repeat 1 [1]: 2.0
- Firefly, cmpd/DMSO repeat 2 [1]: 1.9

Structure (SMILES): COc1cc(NC(=O)c2ccc3oc(=O)c(S(=O)(=O)c4ccc(Cl)cc4)cc3c2)cc(OC)c1 [Compound C133]
- Firefly, cmpd/DMSO repeat 1 [1]: 2.1
- Firefly, cmpd/DMSO repeat 2 [1]: 4.3

Structure (SMILES): O=c1oc2ccc(Cl)cc2cc1S(=O)(=O)c1ccc(Cl)cc1 [Compound C147]
- Firefly, cmpd/DMSO repeat 1 [1]: 2.6
- Firefly, cmpd/DMSO repeat 2 [1]: 2.9

Structure (SMILES): O=c1oc2ccccc2cc1S(=O)(=O)c1cccc(Cl)c1 [Compound C109]
- Firefly, cmpd/DMSO repeat 1 [1]: 9.2
- Firefly, cmpd/DMSO repeat 2 [1]: 10.3
- Firefly/Renilla (NR2F6 stable, clone F4) (Table 13): 2.9
- Firefly, NR2F6 stable (clone F4)/pGL4 (Table 13): 2.9
- Firefly, cmpd/DMSO repeat 1 (Table 13): 9.2
- Firefly, cmpd/DMSO repeat 2 (Table 13): 10.3

Structure (SMILES): COc1ccc(NC(=O)c2ccc3oc(=O)c(S(=O)(=O)c4ccc(F)cc4)cc3c2)cc1 [Compound C179]
- Firefly, cmpd/DMSO repeat 1 [1]: 8.7
- Firefly, cmpd/DMSO repeat 2 [1]: 10.1

Structure (SMILES): O=c1oc2ccccc2cc1S(=O)(=O)c1ccc(Br)cc1 [Compound C102]
- Firefly, cmpd/DMSO repeat 1 [1]: 13.0
- Firefly, cmpd/DMSO repeat 2 [1]: 15.3
- Firefly/Renilla (NR2F6 stable, clone F4) (Table 12): 2.4
- Firefly, NR2F6 stable (clone F4)/pGL4 (Table 12): 5.9
- Firefly, cmpd/DMSO repeat 1 (Table 12): 13.0
- Firefly, cmpd/DMSO repeat 2 (Table 12): 15.3

Structure (SMILES): Cc1ccc(S(=O)(=O)c2cc3cc(Cl)ccc3oc2=O)cc1 [Compound C202]
- Firefly, cmpd/DMSO repeat 1 [1]: 15.7
- Firefly, cmpd/DMSO repeat 2 [1]: 14.1
- Firefly/Renilla (NR2F6 stable, clone F4) (Table 12): 1.7
- Firefly, NR2F6 stable (clone F4)/pGL4 (Table 12): 6.1
- Firefly, cmpd/DMSO repeat 1 (Table 12): 15.7
- Firefly, cmpd/DMSO repeat 2 (Table 12): 14.1

Next, values leading:

- Firefly, cmpd/DMSO repeat 1 (Table 9): 3.5
- Firefly, cmpd/DMSO repeat 2 (Table 9): 2.9
Structure (SMILES): CCOc1cccc2cc(S(=O)(=O)c3ccc(F)cc3)c(=O)oc12 [Compound C237]

- Firefly, cmpd/DMSO repeat 1 (Table 9): 1.0
- Firefly, cmpd/DMSO repeat 2 (Table 9): 1.3
Structure (SMILES): COc1cccc2cc(S(=O)(=O)c3cc(C)cc(C)c3)c(=O)oc12 [Compound C227]

- Firefly, cmpd/DMSO repeat 1 (Table 11): 0.9
- Firefly, cmpd/DMSO repeat 2 (Table 11): 0.8
Structure (SMILES): CC(C)(C)c1ccc(S(=O)(=O)c2cc3cc(F)cc(F)c3oc2=O)cc1 [Compound C291]

- Firefly, cmpd/DMSO (mean): 1.0
Structure (SMILES): COc1ccccc1-c1noc(Cn2ncc(C)cc2=O)n1 [Compound Z150]

- Firefly, cmpd/DMSO repeat 1 [1]: 1.1
- Firefly, cmpd/DMSO repeat 2 [1]: 0.8
Structure (SMILES): COc1ccc2cc(S(=O)(=O)c3ccccc3)c(=O)oc2c1 [Compound C264]

- Firefly, cmpd/DMSO repeat 1 [1]: 1.9
- Firefly, cmpd/DMSO repeat 2 [1]: 1.9
Structure (SMILES): COc1ccc(S(=O)(=O)c2cc3cc(F)ccc3oc2=O)cc1 [Compound C214]

- Firefly, cmpd/DMSO (mean): 1.2
Structure (SMILES): COc1ccc(-c2noc(Cn3ncc(C)c(C)c3=O)n2)cc1 [Compound Z140]

- Firefly, cmpd/DMSO (mean): 1.1
Structure (SMILES): COc1ccccc1-c1noc(Cn2nccc(C)c2=O)n1 [Compound Z151]

- Firefly, cmpd/DMSO repeat 1 (Table 9): 2.0
- Firefly, cmpd/DMSO repeat 2 (Table 9): 3.3
Structure (SMILES): CCOc1cccc2cc(S(=O)(=O)c3ccc(C)c(C)c3)c(=O)oc12 [Compound C243]
